Data published in PubChem BioAssay (NCI).
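96-well plates; 48 h exposure; 5 concentrations. Endpoints by linear interpolation between flanking doses. Not reached: highest tested concentration assigned. Definition used: TGI = concentration required for complete inhibition of growth.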

Assays:
Test in all cases: growth of human tumour cells (NCI), 48 h
[1] = system: 786-0 renal
[2] = system: A498 renal
[3] = system: A549 NSCLC
[4] = system: ACHN renal
[5] = system: CAKI-1 renal
[6] = system: CCRF-CEM leukemia
[7] = system: COLO 205 colon
[8] = system: DU-145 prostate
[9] = system: EKVX NSCLC
[10] = system: HCC-2998 colon
[11] = system: HCT-116 colon
[12] = system: HCT-15 colon
[13] = system: HL-60(TB) leukemia
[14] = system: HOP-62 NSCLC
[15] = system: HOP-92 NSCLC
[16] = system: HT29 colon
[17] = system: IGROV1 ovarian
[18] = system: K-562 leukemia
[19] = system: KM12 colon
[20] = system: LOX IMVI melanoma
[21] = system: M14 melanoma
[22] = system: MCF7 breast
[23] = system: MDA-MB-231 breast
[24] = system: MDA-MB-435
[25] = system: MDA-N
[26] = system: MOLT-4 leukemia
[27] = system: NCI-H226 lung
[28] = system: NCI-H23 lung
[29] = system: NCI-H460 lung
[30] = system: NCI/ADR-RES ovarian
[31] = system: OVCAR-3 ovarian
[32] = system: OVCAR-4 ovarian
[33] = system: OVCAR-5 ovarian
[34] = system: OVCAR-8 ovarian
[35] = system: PC-3 prostate
[36] = system: RPMI-8226 leukemia
[37] = system: SF-268 CNS
[38] = system: SF-295 CNS
[39] = system: SK-MEL-2 melanoma
[40] = system: SK-MEL-28 melanoma
[41] = system: SK-MEL-5 melanoma
[42] = system: SK-OV-3 ovarian
[43] = system: SN12C renal
[44] = system: SNB-19 CNS
[45] = system: SNB-75 CNS
[46] = system: SR leukemia
[47] = system: SW-620 colon
[48] = system: T-47D breast
[49] = system: TK-10 renal
[50] = system: U251 CNS
[51] = system: UACC-257 melanoma
[52] = system: UACC-62 melanoma
[53] = system: UO-31 renal

Molecule COC1/C=C/C(C)C(C(C)C(OC)C(C)CCC(=O)C(C)C(CC(=O)O)OC)OC(=O)/C=C/C=C(\C)CC(OC)C(OC)C2=CC(=O)O[C@@H](C(C)C(OC)CC(OC)/C=C/C(C)C(O)C1)[C@H]2O (stereo partly drawn) has a TGI [1] of 120 nM, a TGI [2] of 365 nM and a TGI [3] of 437 nM. The TGI [4] was over 1070 nM, the TGI [5] was over 1070 nM and the TGI [6] was over 1070 nM. For the same molecule, the TGI [7] was over 1070 nM, the TGI [8] was over 1070 nM and the TGI [9] was 175 nM. For the same molecule, the TGI [10] was over 1070 nM, the TGI [11] was 227 nM and the TGI [12] was 926 nM. For the same molecule, the TGI [13] was 74 nM, the TGI [14] was 468 nM and the TGI [15] was 91.7 nM. It also gave a TGI [16] of 70.1 nM, a TGI [17] of 29.7 nM and a TGI [18] of over 1070 nM. The TGI [19] was over 1070 nM, the TGI [20] was over 1070 nM and the TGI [21] was 73.9 nM. It also gave a TGI [22] of over 1070 nM, a TGI [23] of 754 nM and a TGI [24] of 1020 nM. For the same molecule, the TGI [25] was over 1070 nM, the TGI [26] was over 1070 nM and the TGI [27] was 127 nM. The TGI [28] was 722 nM, the TGI [29] was over 1070 nM and the TGI [30] was 470 nM. It also gave a TGI [31] of over 1070 nM, a TGI [32] of over 1070 nM and a TGI [33] of over 1070 nM. It also gave a TGI [34] of 132 nM, a TGI [35] of over 1070 nM and a TGI [36] of over 1070 nM. The TGI [37] was 157 nM, the TGI [38] was 261 nM and the TGI [39] was 625 nM. The TGI [40] was 267 nM, the TGI [41] was 242 nM and the TGI [42] was 289 nM. The TGI [43] was over 1070 nM, the TGI [44] was over 1070 nM and the TGI [45] was 98.2 nM. It also gave a TGI [46] of over 1070 nM, a TGI [47] of over 1070 nM and a TGI [48] of 981 nM. The TGI [49] was 306 nM, the TGI [50] was over 1070 nM and the TGI [51] was over 1070 nM. The TGI [52] was over 1070 nM and the TGI [53] was 150 nM.
